One assay relates to IMR90. Description: Calcein AM viability assay, IMR90. It counts as cell-based. As to conditions: IMR-90, normal human fibroblast, 72-hours incubation. As to the method: (§1) The potency of Cdk inhibitors, as measured by loss of cellular viability, was determined with the Calcein AM assay (Molecular Probes). Calcein AM is a substrate of intracellular esterases, which is cleaved only in viable cells to generate a fluorescent product that can be quantified with a fluorescent plate reader. The fluorescent signal is proportional to the number of viable cells, and thus loss of signal in response to the exposure of cells to Cdk inhibitors correlates with a loss of viability. This assay distinguishes cell cycle arrest from loss of viability and is thus well suited for the evaluation of Cdk inhibitors.
(§2) Cellular IC50's were determined in the human colorectal carcinoma cell line, HCT-116, and the normal human fibroblast, IMR90. Protein adjusted IC50's were also determined in HCT-116. Results are presented in Table 3 below (HCT-116 (viability/protein adjusted) and IMR-90).
(§3) HCT-116 or IMR90 cells were recovered from sub-confluent plates by trypsinization and 1,000 or 4,000 cells, respectively, were plated in 24-well dishes and incubated overnight at 37° C., 5% CO2. HCT-116 cells were cultured in RPMI-1640, 10% FCS, and IMR90 cells were cultured in Minimum Essential Medium-alpha, 10% FCS. After overnight incubation to allow.adlierence, the media was aspirated from each well and replaced with media containing a test compound at a concentration from 0 to 250 nM, spanning a total of 7 doses. The plates were returned to the incubator and cultured for an additional 3 days. […] After 72-hours incubation with the test compound, the cells were washed twice with 1×PBS, talking special care to remove all residual buffer.
(§4) A 5 μM Calcein AM. solution was prepared by dissolving a 50 μg aliquot of Calcein (Molecular Probes catalog # C3100) in 50 μl DMSO. After the Calcein had completely dissolved (10 minutes at room temperature), it was diluted into 10 ml PBS. Calcein/PBS (0.5 ml) was added to each well. The plates were incubated for 75 minutes at 37° C. (protected from light) and the fluorescent signal was read on a fluorescent plate reader (excitation 485/20 and emission 530/25).

In a further assay the test system is HCT-116. Put plainly: Calcein AM viability assay, HCT-116. It is filed as cell-based, human. As to conditions: 72-hours incubation, plus 1 mg/ml alpha acidic glycoprotein and 45 mg/ml human serum albumin, read-out: HCT-116 IC50 protein adjusted. As to the method: as §1, §2, §3, §4
For a further assay, the system named is HCT-116 cells. Put plainly: Clonogenic survival assay with HCT-116 cells. It is filed as cell-based. As to conditions: Homo sapiens, 24 h exposure, read-out: HCT-116 IC50 clonogenic 24 h. Here is the method: This assay was used to determine the concentration of a compound that results irreversible loss of viability after a specified period of exposure.
Media (RPMI-1640, 10% FCS, pen/strep) was pre-warnied to 37° C. in a water bath. Cells were incubated and grown at 37° C., 5% CO2. Cells were recovered by trypsinization from sub-confluent plates and counted using a hemocytometer. 1×10^4 cells were plated in 25 mls of media in a 15 cm tissue culture dish. 14 plates were set up for each test compound, and were incubated overnight at 37° C. The compound was diluted into media at 7 concentrations and the media on the cells was replaced with that containing the test compound. Two plates were set up for each concentration of the compound to be tested, as well as two control plates without compound. […] Colonies were stained with crystal violet solution (0.4% crystal violet, 20 % ethanol) for 5 minutes, washed twice with distilled water, and counted.

Molecules are shown by their SMILES.

In general, IC50 refers to the concentration at which inhibition is half-maximal. As to `CC(C)c1nn(-c2c(Cl)cccc2Cl)c2nc(Cc3ccc(O)c(CN4CCN(C(C)C)CC4)c3)[nH]c(=O)c12.Cl.Cl` [Compound C], in the assay with IMR90, the IC50 was under 100 nM. Take `Cl.Cl.Cl.O=C(Nc1cccc2c1C(=O)c1c-2n[nH]c1-c1ccc(OCCN2CCCC2)cc1)NN1CCOCC1` [Compound I]: the IC50 was under 1000 nM with HCT-116 and under 100 nM with IMR90. With `CC(C)N1CCN(CCOc2ccc(-c3[nH]nc4c3C(=O)c3c(NC(=O)NN5CCOCC5)cccc3-4)cc2)CC1.Cl.Cl.Cl` [E], the IC50 was under 1000 nM with HCT-116 and under 100 nM in the assay on IMR90. In the case of `CN1CCN(NC(=O)Nc2cccc3c2C(=O)c2c-3n[nH]c2-c2ccc(OCCN3CCCC3)cc2)CC1.Cl.Cl.Cl` [F], the IC50 in the assay on IMR90 is under 100 nM. For `CCCN(CCOc1ccc(-c2[nH]nc3c2C(=O)c2c(NC(=O)NN4CCOCC4)cccc2-3)cc1)CC1CC1.Cl.Cl.Cl` [G], the IC50 is under 1000 nM in the assay with HCT-116 and under 100 nM in the assay with IMR90. With `Cl.Cl.Cl.O=C(Nc1cccc2c1C(=O)c1c-2n[nH]c1-c1ccc(OCCN(CCO)CCO)cc1)NN1CCOCC1` [H], the IC50 in the assay on IMR90 was under 100 nM. With `CC(C)N1CCN(Cc2cc(-c3[nH]nc4c3C(=O)c3c(NC(=O)NN5CCOCC5)cccc3-4)ccc2O)CC1.Cl.Cl.Cl.Cl` [K], the IC50 in the assay with HCT-116 is under 1000 nM; with HCT-116 cells it was under 1000 nM; in the assay on IMR90 it was over 100 nM. In the case of `CN1CCN(NC(=O)Nc2cccc3c2C(=O)c2c-3n[nH]c2-c2ccc(OCCN3CCOCC3)cc2)CC1.Cl.Cl` [Q], the figures for the IC50 in the assay with HCT-116 and with IMR90 were under 1000 nM and under 100 nM, respectively.
